Molecular target: T1, p47^phox (Homo sapiens, UniProt P14598)
T1 construct: we evaluated p47^phox translocation from the cytosol to the membrane in HL-60 differentiated cells; endogenous in cells; host or cells: neutrophil-differentiated HL-60 cells treated with PMA; membrane and cytosolic fractions obtained by cryo-fracture
T1 sequence (P14598 1-390): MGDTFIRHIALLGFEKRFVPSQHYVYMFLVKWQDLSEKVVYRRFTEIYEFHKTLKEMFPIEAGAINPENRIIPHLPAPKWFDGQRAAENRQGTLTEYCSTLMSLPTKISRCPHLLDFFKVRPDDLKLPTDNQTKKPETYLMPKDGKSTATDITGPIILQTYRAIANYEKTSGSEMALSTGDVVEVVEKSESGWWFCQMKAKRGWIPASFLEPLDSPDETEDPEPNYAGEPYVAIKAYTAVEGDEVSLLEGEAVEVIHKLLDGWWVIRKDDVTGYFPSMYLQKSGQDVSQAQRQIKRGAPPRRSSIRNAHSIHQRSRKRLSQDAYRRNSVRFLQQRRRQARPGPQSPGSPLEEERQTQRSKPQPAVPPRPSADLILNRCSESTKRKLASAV
Experiment: p47phox translocation from cytosol to membrane (Western blot) in PMA-stimulated HL-60 differentiated cells
Format: cell-based
Details: PMA 0.8 µM, 50 μM
Experimental: Neutrophil-differentiated HL-60 cells (2 × 10^6 cells/mL) were incubated at 37 °C in a humid atmosphere with 5% CO2 and 50 μM of the different acrylonitrile compounds, then PMA 0.8 μM was added and incubated for 1 h to induce the activation of the enzyme NADPH oxidase. As a positive inhibition control, VAS2870 (20 μM) was used. Another two controls were performed: one with cells activated by PMA in the presence of DMSO, and the other (NA, non-activated) with cells in the absence of PMA and the acrylonitrile compounds. In 15 mL conical tubes, 5 mL of cell suspension from each treatment and control condition was transferred at 2 × 10^6 cells/mL and centrifuged at 1000 rpm at 4 °C for 10 min. The supernatant was then discarded, and each pellet was re-suspended in 2 mL of a 4% PBS solution with 2 mM EGTA and 0.25 mM PMSF frozen at −80 °C for 10 min. Then each pellet was thawed on ice. After this, the cell suspension was passed through a glass tissue homogenizer (Deltalab®, I.C.T, S.L, La Rioja, Spain) 20 times. The freezing-thawing and homogenization processes were repeated three times. Finally, the homogenate was centrifuged at 15,000 rpm at 4 °C for 15 min. The supernatant (cytosolic fraction) was removed from the pellet (membranes were prepared). A fraction was removed for the determination of total proteins, and the remainder was stored at −80 °C for further analysis. […]

Structure (SMILES): N#C/C(=C\c1cc(-c2ccccc2)on1)C(=O)c1c[nH]c2ccccc12 [Compound C6]
- translocation of p47phox to the membrane (in words): significantly reduced the translocation of p47^phox to the membrane

Source: paper PMC10376059, “New NADPH Oxidase 2 Inhibitors Display Potent Activity against Oxidative Stress by Targeting p22^phox-p47^phox Interactions” (Antioxidants, 2023)
